How the values were obtained:
GRPR on HSC-3 cells = molecular target: T1, GRPR on HSC-3 cells (Homo sapiens, UniProt P30550); assay: Specificity binding (blocking) assay, NIR fluorescence microscopy; type: cell-based; conditions: 37 °C
T1 construct: endogenous in cells; host or cells: HSC-3 (human tongue squamous cell carcinoma)
Procedure: The binding specificities of AF750-6Ahx-Sta-BBN were determined with HSC-3 cells of human oral tongue squamous cell carcinoma using previously described methods. […] To determine the binding affinity of AF750-6Ahx-Sta-BBN in HSC-3, cells were first incubated with BBN (1–14), then added increasing concentrations of AF750-6Ahx-Sta-BBN (0.005–50 nM). Cells were washed after 50 min incubation and examined by flow cytometry. The binding affinity to GRPR is shown in Fig. 7, and plotted as the fluorescence intensity as function of the AF750-6Ahx-Sta-BBN concentration (Fig. 7B).
Figure 6 The specificity binding assay of AF750-6Ahx-Sta-BBN to GRPR on HSC-3 cells at 37 °C. The scale bar is 30 μm.

HSC-3 cells [1] = assay: Time-dependent cell uptake, flow cytometry; type: cell-based, human; conditions: HSC-3, 2 × 10^6 cells, 37 °C, performed three times
Procedure: (§1) The time-dependent experiment was carried out on HSC-3 cells for both AF750-6Ahx-Sta-BBN and NGO-BBN-AF750. […] With increase of incubation time, cells uptake increased, and at the first 15 min, we observed a rapid binding of up to 80%. […] The cell uptake was 83 ± 15% and 89 ± 29% (AF750-6Ahx-Sta-BBN) and 85 ± 15% and 96 ± 20% (NGO-BBN-AF750) at 30 min and 60 min, respectively. We further conducted confocal laser scanning microscope experiments to evaluate the internalization of AF750-6Ahx-Sta-BBN and NGO-BBN-AF750 into HSC-3 cells and HOK cells. Blue fluorescence (Excitation, 460 nm) was used to represent the nuclei of HSC-3 cells. Red (Excitation, 750 nm) channel represents the fluorescence signal of AF750. […] While AF750-6Ahx-Sta-BBN is a GRPR antagonist to the HSC-3, NGO-BBN-AF750 may be internalized into HSC-3 cells via the combined interaction of BBN binding and the endocytosis of the nanoparticle. Evaluating nanotoxicity of NGO-BBN-AF750 was a part of our experimental design.
HSC-3 cells were seeded into 3.5 cm^2 culture dish at a density of 2 × 10^6, next cells were incubated with AF750-6Ahx-Sta-BBN or NGO-AF750-BBN at 37 °C for 15, 30, 60 and 120 min, respectively. Then, cells were washed three times with chilled PBS and harvested for flow cytometry measurements. Experiments were performed three times. For internalization studies, HSC-3 cells were cultured in 24-well plates at 2 × 10^4 cells/well and grown for 24 h. Next, the original medium was replaced with fresh medium containing 50 nM AF750-6Ahx-Sta-BBN or NGO-BBN-AF750. The cells were then incubated for 4 h. After washing the cells three times with PBS, 2.5% paraformaldehyde was used to fix the cells. Then DAPI (Excitation, […]) was used to stain the nuclei of the cells. Finally, the cells were visualized under OLYMPUS FV1200 confocal laser scanning microscope (Olympus, Osaka, Japan). In addition, HOK cells were used as a GRPR-negative control group and cultured with NGO-BBN-AF750, the above experiment was performed and compared to the HSC-3 cells.

HSC-3 cells [2] = assay: Internalization study, confocal laser scanning microscopy; type: cell-based, human; conditions: HSC-3, 50 nM probe, 4 h, DAPI nuclear stain
Procedure: as §1
HSC-3 cells were seeded into 3.5 cm^2 culture dish at a density of 2 × 10^6, next cells were incubated with AF750-6Ahx-Sta-BBN or NGO-AF750-BBN at 37 °C for 15, 30, 60 and 120 min, respectively. Then, cells were washed three times with chilled PBS and harvested for flow cytometry measurements. Experiments were performed three times. […]

GRPR = molecular target: T2, GRPR (Homo sapiens, UniProt P30550); assay: Immunofluorescence assay of paraffin tissue sections with the fluorescent probe; conditions: 4-µm paraffin sections, probe 10 min in the dark, ImageJ quantitation
T2 construct: The paraffin-embedded samples, obtained from the Department of Pathology, Stomatology Hospital of Shanxi Medical University, were cut into 4-µm slices; from tissue; host or cells: paraffin-embedded OSCC tissue and normal oral mucosa sections from patients
Procedure: We analyzed the expression levels of GRPR in primary OSCC sections and the normal tissue sections using AF750-6Ahx-Sta-BBN immunofluorescence assay.
The paraffin-embedded samples, obtained from the Department of Pathology, Stomatology Hospital of Shanxi Medical University, were cut into 4-µm slices. Then tissue blocks were treated with xylene and dehydrated using a graded ethanol series. Following that, the sections were heated for antigen retrieval and incubated in 3% H2O2 to block endogenous peroxidase. The BSA was added and incubated at 37 °C for 30 min. After that, BSA was removed and AF750-6Ahx-Sta-BBN was added and incubated for 10 min in the dark. The slides were observed and imaged using an inverted Olympus fluorescence microscope (Olympus Corp., Osaka, Japan). Quantitative analysis of GRPR expression was performed using ImageJ (https://imagej.nih.gov/ij/). Each patient received written informed consent before the study.

[3] = tested on: GRPR overexpressed in a prostate cancer PC-3 cell line; conditions: cited from earlier work
Excerpt: AF750-6Ahx-Sta-BBN is a GRPR antagonist peptide analog.

T1 sequence (P30550 whole entry): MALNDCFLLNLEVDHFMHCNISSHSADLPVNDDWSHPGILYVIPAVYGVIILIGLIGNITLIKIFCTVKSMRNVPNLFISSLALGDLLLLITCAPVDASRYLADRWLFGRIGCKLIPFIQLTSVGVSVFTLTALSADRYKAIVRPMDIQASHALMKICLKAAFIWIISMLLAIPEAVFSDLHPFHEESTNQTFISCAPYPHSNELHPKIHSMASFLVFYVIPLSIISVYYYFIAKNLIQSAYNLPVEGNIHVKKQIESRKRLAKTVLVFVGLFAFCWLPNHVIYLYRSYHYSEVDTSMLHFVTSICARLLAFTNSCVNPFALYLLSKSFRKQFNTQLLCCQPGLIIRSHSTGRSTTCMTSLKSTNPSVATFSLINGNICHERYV
T2 sequence (P30550 whole entry): as above

-DPhe-Gln-Trp-Ala-Val-Gly-His-Sta-Leu-NH2 [AF750-6Ahx-Sta-BBN, GRPR-specific Alexa Fluor 750 labeled BBN antagonist peptide; Sta-BBN conjugated to AF750 via 6-aminohexanoic acid linker]
NIR fluorescence of cells, blocking group (GRPR on HSC-3 cells; HSC-3 cells incubated with excessive BBN (1–14) for 10 min before the probe): no fluorescence signal | NIR fluorescence of cells, uptake group (GRPR on HSC-3 cells; HSC-3 cells incubated with probe, no blocking): strong NIR fluorescence signals | binding in the first 15 min (HSC-3 cells [1]; 15 min): up to 80% | cell uptake at 30 min (HSC-3 cells [1]; 30 min): 83 ± 15% | cell uptake at 60 min (HSC-3 cells [1]; 60 min): 89 ± 29% | cellular localisation / internalization (HSC-3 cells [2]): observed on the membrane of HSC-3 | fluorescence intensity increase, OSCC tissue versus normal oral mucous tissue (GRPR): 2.5 fold | binding affinity and specificity to GRPR [3]: high binding affinity and specificity

Reference: article PMC7351765, “Gastrin releasing peptide receptor targeted nano-graphene oxide for near-infrared fluorescence imaging of oral squamous cell carcinoma” (Scientific Reports, 2020)
